In brackets after ≈: the same amount, converted by molar mass. Marks after values point to notes of the source that are not given here. One block for each compound: values may come before it.
Experiments:
[1] = Solubility of Compound I in solvents at room temperature (about 25° C.); format: physicochemical; settings: thermodynamic from solid
Method: Compound I was dissolved in a variety of solvents at room temperature (about 25° C.) to provide solutions of Compound I with a maximum concentration of 10 mg/mL. The input material in these experiments was a mixture of polymorphic forms 1, 2, and 3.
The maximum concentration used in this set of experiments was 10 mg/mL. Solubility was highest in THF at >10 mg/mL. […] The solubility was estimated at less than 2 mg/mL for: 1-butanol, butyl acetate, hexane, ethanol, ethyl acetate, isobutyl alcohol, 1-pentanol, isopropanol, acetonitrile, dichloromethane, chloroform, and water.

[2] = Estimated hot solubility in solvents at elevated temperature (approximately solvent boiling point); format: physicochemical; settings: thermodynamic from solid, read-out: Hot Solubility (est)
Method: Compound I was dissolved in a variety of solvents at elevated temperature (approximately at solvent boiling point) to provide solutions of Compound I with a maximum concentration of 15 mg/mL. The input material in these experiments was a mixture of polymorphic forms 1, 2, and 3.
When concentrations of Compound I was greater than 2 mg/mL, the solutions were filtered and evaporated at 25° C. to isolate the solid.

[3] = test system: patients with diffuse cutaneous systemic sclerosis SSc (dcSSc); settings: cited from earlier work
[4] = test system: mouse model of skin fibrosis; settings: cited from earlier work
[5] = Slurry stability study at room temperature (25° C.), 4 weeks, resulting form by FTIR; format: physicochemical; settings: for Final form after slurry: 25° C., 4 weeks, FTIR
Method: Slurry stability Maturation studies were initially conducted for the purpose of identifying the most […] stable form at room temperature (25° C.).
In this set of experiments, both the individual forms and mixtures of forms were slurried in several solvents for 4 weeks, then filtered and analyzed to determine the resulting form. The first set of experiments included pure Form 1, Form 2, Form 3, and mixtures of these forms in equal amounts. The solvents included methanol, ethyl acetate, MEK, and methyl THF in order to investigate a range of solvent polarity. Additional experiments were conducted with a mixture of Form 1 and Form 4 in MEK and methanol.
Analysis was performed by FTIR due to ease of analysis for small quantities. It is interesting to note that the acid carbonyl is shifted to a different location for each polymorph. The results for the first set of experiments are listed below, comparing the starting form with the final form.

[6] = Physical stability of solid state forms at 80° C./75% RH, by FTIR; format: physicochemical; settings: 1 week (7 days), open glass vials
Method: The physical stability of Forms 1, 2, and 3 was investigated at 80° C./75% RH in order to determine if interconversion was observed. The samples were examined by FTIR after stressing 1 week in open glass vials.

[7] = Solubility of polymorphs at pH 7.4 in phosphate buffer at 25° C.; format: physicochemical; settings: pH 7.4 phosphate buffer; for Concentration (equilibrium solubility): 24 hr
Method: The solubility of the different polymorphs was determined at pH 7.4 in phosphate buffer at 25° C. Samples were analyzed as a function of time for each form to determine the equilibrium values. The residual solids from each sample were analyzed to verify that the form was unchanged during the experiment. The concentration (mg/mL) versus time data is listed below for each form: […]

[8] = Dynamic vapor sorption (DVS); format: physicochemical; settings: 25° C.
Method: Moisture sorption/desorption isotherms are recorded on a DVS-1 from SURFACE MEASUREMENT SYSTEMS. Two cycles are run at 25° C., in which the Relative Humidity (RH) is stepped from 0 to 95% and back to 0%. The data is evaluated with the software DVSWin V. 2.15.

[9] = Slurry conversion studies at 40-70° C. with Forms 1 and 2; format: physicochemical
Method: Slurry conversation studies were also conducted at 40-70° C. with Forms 1 and 2 to determine a transition temperature between the forms. A mixture of Form 1 and Form 2 at a (1:1 ratio) was slurried at 40° C., 50° C., 60° C., and 70° C. in two different solvents at each temperature and then analyzed to determine the direction of transformation. At 40° C. and 50° C., Methanol and MEK were used. At 60° C. and 70° C. MEK and 1-Pentanol were used.

[10] = slurried in 1-pentanol at 60° C.
[11] = slurried in 1-pentanol at 70° C.

SMILES: COc1ccc(C(=O)NC2(C(=O)O)Cc3ccccc3C2)cc1OCCc1cccc(C)c1 [Compound I, 2-(4-methoxy-3-(3-methylphenethoxy)benzamido)-2,3-dihydro-1H-indene-2-carboxylic acid]
solubility ([1]; organic solvent or mixture, 1-butanol, read-out: Solubility (estimated)): < 2000 µg/mL | solubility ([1]; organic solvent or mixture, 1-pentanol, read-out: Solubility (estimated)): < 2000 µg/mL | solubility ([1]; organic solvent or mixture, MEK, read-out: Solubility): 4000 to 6000 µg/mL (≈ 8.98 to 13.5 mM) | solubility ([1]; organic solvent or mixture, THF, read-out: Solubility): > 10000 µg/mL | solubility ([1]; organic solvent or mixture, acetone, read-out: Solubility): 4000 to 6000 µg/mL (≈ 8.98 to 13.5 mM) | solubility ([1]; organic solvent or mixture, acetonitrile, read-out: Solubility (estimated)): < 2000 µg/mL | solubility ([1]; organic solvent or mixture, butyl acetate, read-out: Solubility (estimated)): < 2000 µg/mL | solubility ([1]; organic solvent or mixture, chloroform, read-out: Solubility (estimated)): < 2000 µg/mL | solubility ([1]; organic solvent or mixture, dichloromethane, read-out: Solubility (estimated)): < 2000 µg/mL | solubility ([1]; organic solvent or mixture, ethanol, read-out: Solubility (estimated)): < 2000 µg/mL | solubility ([1]; organic solvent or mixture, ethyl acetate, read-out: Solubility (estimated)): < 2000 µg/mL | solubility ([1]; organic solvent or mixture, hexane, read-out: Solubility (estimated)): < 2000 µg/mL | solubility ([1]; organic solvent or mixture, isobutyl alcohol, read-out: Solubility (estimated)): < 2000 µg/mL | solubility ([1]; organic solvent or mixture, isopropanol, read-out: Solubility (estimated)): < 2000 µg/mL | solubility ([1]; organic solvent or mixture, methanol, read-out: Solubility): 2000 to 3000 µg/mL (≈ 4.49 to 6.73 mM) | solubility ([1]; water, read-out: Solubility (estimated)): < 2000 µg/mL | solubility ([2]; 40 °C, organic solvent or mixture, Dichloromethane (DCM)): < 4000 µg/mL | solubility ([2]; 56 °C, organic solvent or mixture, Acetone): > 10000 µg/mL | solubility ([2]; 61 °C, organic solvent or mixture, Chloroform): 4000 to 5000 µg/mL (≈ 8.98 to 11.2 mM) | solubility ([2]; 65 °C, organic solvent or mixture, Methanol): > 10000 µg/mL | solubility ([2]; 69 °C, organic solvent or mixture, Hexane): < 2000 µg/mL | solubility ([2]; 77 °C, organic solvent or mixture, Ethyl Acetate): 5000 to 10000 µg/mL (≈ 11.2 to 22.4 mM) | solubility ([2]; 78 °C, organic solvent or mixture, Ethanol): > 10000 µg/mL | solubility ([2]; 80 °C, organic solvent or mixture, Methyl Ethyl Ketone (MEK)): > 15000 µg/mL | solubility ([2]; 82 °C, organic solvent or mixture, 2-Propanol): 7000 to 10000 µg/mL (≈ 15.7 to 22.4 mM) | solubility ([2]; 82 °C, organic solvent or mixture, Acetonitrile): 7000 to 10000 µg/mL (≈ 15.7 to 22.4 mM) | solubility ([2]; 100 °C, Water): < 2000 µg/mL | solubility ([2]; 108 °C, organic solvent or mixture, Isobutyl Alcohol): > 10000 µg/mL | solubility ([2]; 118 °C, organic solvent or mixture, 1-Butanol): > 10000 µg/mL | solubility ([2]; 126 °C, organic solvent or mixture, Butyl Acetate): ~10000 µg/mL (≈ 22.4 mM) | solubility ([2]; 138 °C, organic solvent or mixture, 1-Pentanol): > 10000 µg/mL | Outcome measures [3]: improved outcome measures | Target engagement [3]: demonstrated target engagement | Tolerability [3]: well tolerated | Collagen content [4]: reduced collagen content | Dermal thickening [4]: reversed dermal thickening | Myofibroblast differentiation [4]: significantly inhibited myofibroblast differentiation

SMILES: COc1ccc(C(=O)NC2(C(=O)O)Cc3ccccc3C2)cc1OCCc1cccc(C)c1 [Form 1, 2-(4-methoxy-3-(3-methylphenethoxy)benzamido)-2,3-dihydro-1H-indene-2-carboxylic acid]
Relative stability of the crystal forms ([5]; room temperature (25° C.), from slurry data set): most stable form | Final form after slurry ([5]; slurried in MEK): Form 1 | Final form after slurry ([5]; slurried in ethyl acetate): Form 1 | Final form after slurry ([5]; slurried in methanol): Form 1 | Final form after slurry ([5]; slurried in methyl THF): Form 1 | Change in FTIR spectrum after storage [6]: unchanged FTIR | Concentration (solubility) ([7]; 1 hr): 42 µg/mL | Concentration (solubility) ([7]; 2 hr): 41 µg/mL | Concentration (solubility) ([7]; 3 hr): 42 µg/mL | Concentration (equilibrium solubility) [7]: 0.042 mg/mL | Reversible water uptake [8]: less than 1% | Resulting form after slurry [9, 10]: converts to crystalline Form 2 | Resulting form after slurry [9, 11]: converts to crystalline Form 2 | Resulting form after slurry ([9]; slurried in MEK at 60° C.): converts to crystalline Form 2 | Resulting form after slurry ([9]; slurried in MEK at 70° C.): converts to crystalline Form 2

SMILES: COc1ccc(C(=O)NC2(C(=O)O)Cc3ccccc3C2)cc1OCCc1cccc(C)c1 [Form 2, 2-(4-methoxy-3-(3-methylphenethoxy)benzamido)-2,3-dihydro-1H-indene-2-carboxylic acid]
Final form after slurry ([5]; slurried in MEK): converts to crystalline Form 1 | Final form after slurry ([5]; slurried in ethyl acetate): Form 2 | Final form after slurry ([5]; slurried in methanol): Form 2 | Final form after slurry ([5]; slurried in methyl THF): Form 2 | Change in FTIR spectrum after storage [6]: unchanged FTIR | 24 hour solubility greater than Form 1 ([7]; 24 hours): more than 30% | Concentration (solubility) ([7]; 1 hr): 34 µg/mL | Concentration (solubility) ([7]; 2 hr): 39 µg/mL | Concentration (solubility) ([7]; 3 hr): 43 µg/mL | Concentration (equilibrium solubility) [7]: 0.057* mg/mL | Resulting form after slurry ([9]; slurried in MEK at 40° C.): converts to crystalline Form 1 | Resulting form after slurry ([9]; slurried in MEK at 50° C.): converts to crystalline Form 1 | Resulting form after slurry ([9]; slurried in methanol at 40° C.): converts to crystalline Form 1 | Resulting form after slurry ([9]; slurried in methanol at 50° C.): converts to crystalline Form 1

SMILES: COc1ccc(C(=O)NC2(C(=O)O)Cc3ccccc3C2)cc1OCCc1cccc(C)c1 [Form 3, 2-(4-methoxy-3-(3-methylphenethoxy)benzamido)-2,3-dihydro-1H-indene-2-carboxylic acid]
Final form after slurry ([5]; slurried in MEK): converts to crystalline Form 1 | Final form after slurry ([5]; slurried in ethyl acetate): converts to crystalline Form 1 | Final form after slurry ([5]; slurried in methanol): converts to crystalline Form 1 | Final form after slurry ([5]; slurried in methyl THF): converts to crystalline Form 1 | Change in FTIR spectrum after storage [6]: unchanged FTIR | Equilibrium solubility relative to Form 1 ([7]; 24 hours): more than double | Concentration (solubility) ([7]; 1 hr): 83 µg/mL | Concentration (solubility) ([7]; 2 hr): 93 µg/mL | Concentration (solubility) ([7]; 3 hr): 95 µg/mL | Concentration (equilibrium solubility) [7]: 0.097 mg/mL

Second part, the compound after the results:

Equilibrium solubility relative to Form 1 ([7]; 24 hours): more than double | Concentration (solubility) ([7]; 1 hr): 79 µg/mL | Concentration (solubility) ([7]; 2 hr): 89 µg/mL | Concentration (solubility) ([7]; 3 hr): 105 µg/mL | Concentration (equilibrium solubility) [7]: 0.102 mg/mL
SMILES: COc1ccc(C(=O)NC2(C(=O)O)Cc3ccccc3C2)cc1OCCc1cccc(C)c1 [Form 4, 2-(4-methoxy-3-(3-methylphenethoxy)benzamido)-2,3-dihydro-1H-indene-2-carboxylic acid]

Final form after slurry ([5]; slurried in MEK): Form 1 | Final form after slurry ([5]; slurried in methanol): Form 1 | Final form after slurry ([5]; slurried in methyl THF): Form 1
SMILES: COc1ccc(C(=O)NC2(C(=O)O)Cc3ccccc3C2)cc1OCCc1cccc(C)c1 [Forms 1, 2, 3]

Resulting form after slurry [9, 10]: Form 2 | Resulting form after slurry [9, 11]: Form 2 | Resulting form after slurry ([9]; slurried in MEK at 40° C.): Form 1 | Resulting form after slurry ([9]; slurried in MEK at 50° C.): Form 1 | Resulting form after slurry ([9]; slurried in MEK at 60° C.): Form 2 | Resulting form after slurry ([9]; slurried in MEK at 70° C.): Form 2 | Resulting form after slurry ([9]; slurried in methanol at 40° C.): Form 1 | Resulting form after slurry ([9]; slurried in methanol at 50° C.): Form 1
SMILES: COc1ccc(C(=O)NC2(C(=O)O)Cc3ccccc3C2)cc1OCCc1cccc(C)c1 [mixture of Form 1 and Form 2]

Final form after slurry ([5]; slurried in MEK): convert to Form 1 | Final form after slurry ([5]; slurried in methanol): convert to Form 1
SMILES: COc1ccc(C(=O)NC2(C(=O)O)Cc3ccccc3C2)cc1OCCc1cccc(C)c1 [mixtures of Form 4 and Form 1]

— US20220064105A1, “CRYSTALLINE EDG-2 RECEPTOR ANTAGONIST AND METHODS OF MAKING” (Sanofi, priority 2020, published 2022)
